The values that follow come from patent publication US20180273573A1, “INHIBITORS OF MENAQUINONE BIOSYNTHESIS” (Memorial Sloan-Kettering Cancer Center, priority 2015, published 2018).

Usually MIC stands for the least concentration at which growth counts as inhibited. The Kd is the free concentration of one partner at which half of the binding sites on the other are occupied at equilibrium, for simple one-to-one binding. Lower therefore signals higher affinity. As usually defined, the pKa is the negative logarithm of the acid dissociation constant. A high value points to a weaker acid or stronger base. Usually IC50 stands for the concentration that gives 50% inhibition.

For data set [1], the system named is B. subtilis (ATCC 6051). In words: MIC, Alamar blue assay. Particulars: Bacillus subtilis, ATCC6051. In kind it is cell-based. (Alamar Blue is a resazurin reagent that responds to reducing activity.)
In data set [2] the test system is MRSA, S. aureus (ATCC BAA-1762). In words: MIC, Alamar blue assay. It is filed as cell-based, methicillin-resistant S. aureus. Particulars: Staphylococcus aureus.
Data set [3] concerns M. tuberculosis (H37Rv). In words: MIC, Alamar blue assay. In kind it is cell-based. As to conditions: Mycobacterium tuberculosis.
The test system of data set [4] is B. subtilis, MRSA, M. tuberculosis and E. coli. In words: Antibacterial activity and MK4 growth rescue, statements over all bacteria tested. It is filed as cell-based. As to conditions: for increase in MIC values when complemented with exogenous menaquinone-4: B. subtilis, MRSA, M. tuberculosis.
Data set [5] concerns menaquinone levels in S. aureus ATCC BAA-1762 (MRSA). As to the kind of experiment: Menaquinone levels by LC-MS/MS after lipid extraction. In kind it is cell-based. As to conditions: for decrease in menaquinone-8: MRSA, FIG. 9, two independent experiments. The text has this: The 1959 Blight/Dyer lipid extraction protocol was followed. Menaquinone levels were quantified by LC-MS/MS using standard curves generated with MK4 and MK9. A distribution of MKs are present in untreated MRSA with MK8 most abundant.
Standard error shown for two independent experiments. *p≤0.05, **p≤0.01.
To provide direct insight into the mode of action of the MenE inhibitors, we analyzed the effect of OSB-AMS on menaquinone-levels in S. aureus by tandem MS (FIG. 2), as follows. Cultures of S. aureus ATCC BAA-1762 (5 mL in Synthetic Broth medium with 10% glucose) were incubated overnight in a 37° C. shaker in the presence or absence of OSB-AMS (15.6 μg/mL final concentration). The Blight and Dyer (1959) lipid extraction protocol was used to isolate the menaquinone-containing fraction from the cells.^(5) Briefly, 0.75 mL of 1:2 (v/v) CHCl3:MeOH was added to 0.2 mL of culture. The mixture was vortexed thoroughly, and 0.25 mL of CHCl3 was added followed by further vortexing after which 0.25 mL of H2O was added. The mixture was then vortexed and centrifuged at 1000 rpm for 5 minutes at room temperature. The bottom phase was recovered, transferred to a glass vial and 200 μL was analyzed by APCI LC-MS/MS in positive ion mode using a Thermo TSQ Quantum Access (Thermo-Fisher) Triple Quadrupole Mass Spectrometer. Menaquinone levels were quantified using standard established for MK4 and MK9. Samples were introduced into the mass spectrometer by flow injection at 100 μL/min with 2:1 MeOH/CHCL3 as the solvent. Multiple Reaction Monitoring (MRM) was performed at 30 eV. MK4, MK5 and MK6 were quantified using the standard curve for MK4 whereas MK7, MK8, and MK9 were quantified using MK9.

In data set [6] the test system is E. coli. As to the kind of experiment: MIC, Alamar blue assay. It is filed as cell-based, E. coli (K-12). Particulars: Escherichia coli; Table E2; ~90% cell death.
Data set [7] addresses wild-type E. coli MenE (Escherichia coli, UniProt P37353). In words: Direct fluorescent binding assay (intrinsic tryptophan fluorescence). The method, then: Difluoroindandiol 109 was titrated into a solution of wild-type E. coli MenE and the change in fluorescence was measured using a Quanta Master fluorimeter at excitation and emission wavelengths of 280 and 332 nm, respectively. Data was analyzed using the Morrison equation.
Instead, to determine the Kd for 109, we used a direct binding assay in which the change in the intrinsic tryptophan fluorescence of ecMenE was monitored (see FIG. 14 for binding isotherm and data). […] The solution was stirred continuously, and fluorescence measurements were taken with a Quanta Master fluorimeter using excitation and emission wavelengths of 280 and 332 nm, respectively. Slit widths were optimized to 4 and 2 nm for excitation and emission, respectively. Data were corrected for the inner filter effect and then fit to the following equation using MATLAB: […]

A short description of data set [8]: physchem.
Data set [9] addresses E. coli MenE (ecMenE) (Escherichia coli, UniProt P37353). As to the kind of experiment: MenE-MenB coupled assay (enzyme inhibition, catalytic parameters). As to conditions: read-out: E. coli MenE IC50; Table E6.
Method: Measurements were performed in triplicate for each compound.
Analysis of the catalytic efficiency (kcat/KM) of the mutant enzymes compared to wild type MenE was performed using the MenE-MenB coupled assay described above.
Data set [10] concerns the target wild-type ecMenE (Escherichia coli, UniProt P37353).
Method: The direct binding of inhibitors to MenE was quantified using isothermal titration calorimetry (ITC). Measurements were made with a MicroCal VP-ITC instrument at 25° C. Inhibitor stock solutions (1 mM in NaHPO4 buffer pH 7.4 containing 150 mM NaCl and 1 mM MgCl2) were titrated in 4 μL increments into a 50 μM solution of MenE in pH 7.4 20 mM sodium phosphate buffer containing 150 mM sodium chloride and 1 mM magnesium chloride. The data were fit to a single binding site model with the Origin software package.
Where [11] appears, read: Table E5, with addition of exogenous menaquinone-4 (10 μg/mL), read-out: B. subtilis MIC (in parentheses).
The mark [12] stands for this setting: Table E5, without menaquinone-4, read-out: B. subtilis MIC.
[13] abbreviates: Table E5, with addition of exogenous menaquinone-4 (10 μg/mL), read-out: MRSA MIC (in parentheses).
[14] abbreviates: Table E5, without menaquinone-4, read-out: MRSA MIC.
The mark [15] stands for this setting: Table E5, with addition of exogenous menaquinone-4 (10 μg/mL), read-out: M. tuberculosis MIC (in parentheses).
[16] abbreviates: Table E5, without menaquinone-4, read-out: M. tuberculosis MIC.
Setting [17] is: Table E2, ~90% cell death, read-out: B. subtilis MIC.
[18] abbreviates: Table E2, ~90% cell death, read-out: MRSA MIC.
Setting [19] is: Table E2, ~90% cell death, read-out: M. tuberculosis MIC.

≈ marks a conversion by molar mass, not a printed value. Like-named read-outs stand apart in the source and are kept apart here.

Chain of wild-type ecMenE (P37353 whole entry): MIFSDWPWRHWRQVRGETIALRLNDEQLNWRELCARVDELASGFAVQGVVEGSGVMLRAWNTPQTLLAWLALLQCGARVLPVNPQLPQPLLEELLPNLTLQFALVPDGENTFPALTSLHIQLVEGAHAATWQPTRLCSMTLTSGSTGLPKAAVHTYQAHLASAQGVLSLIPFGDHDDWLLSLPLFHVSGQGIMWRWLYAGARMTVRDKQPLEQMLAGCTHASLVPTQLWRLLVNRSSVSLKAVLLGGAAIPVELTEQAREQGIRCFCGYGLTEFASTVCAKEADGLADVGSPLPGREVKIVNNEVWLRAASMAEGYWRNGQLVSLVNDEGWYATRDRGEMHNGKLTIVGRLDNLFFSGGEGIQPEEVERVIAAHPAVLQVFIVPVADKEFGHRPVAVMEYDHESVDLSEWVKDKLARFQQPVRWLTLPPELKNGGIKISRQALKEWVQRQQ
Chain of E. coli MenE (ecMenE) (P37353 whole entry): as above
Chain of wild-type E. coli MenE (P37353 whole entry): as above

For `Nc1ncnc2c1ncn2[C@@H]1O[C@H](COS(=O)(=O)NC(=O)CCC2(O)c3ccccc3C(O)C2(F)F)[C@@H](O)[C@H]1O` (mixture of isomers) [Compound 2], the MIC worked out at 62.5 µg/mL in data set [1] (setting [11]); 15.6 µg/mL in [1] (setting [12]); 62.5 µg/mL in [2] (setting [13]); 15.6 µg/mL in data set [2] (setting [14]); 62.5 µg/mL in data set [3] (setting [15]); 15.6 µg/mL in data set [3] (setting [16]). In addition, in data set [4], the “increase in MIC values when complemented with exogenous menaquinone-4” value is “four-fold increase”. For the same compound, in data set [5], the “decrease in menaquinone-8” value is recorded as 31%.
For the compound `Nc1ncnc2c1ncn2[C@@H]1O[C@H](COS(=O)(=O)NC(=O)CCC2(O)c3ccccc3C(O)C2(F)F)[C@@H](O)[C@H]1O` (mixture of isomers) [Compound 109], the MIC in [6] was more than 500 µg/mL; in data set [1] (setting [17]), 31.2 µg/mL (≈ 53.3 µM); in [2] (setting [18]), 15.6 µg/mL (≈ 26.6 µM); in [3] (setting [19]), 15.6 µg/mL (≈ 26.6 µM). Further, binding in data set [7] was put at a Kd of 120 ± 23 nM. In addition, in [8], the pKa was found to be 11.5.
On to `Nc1ncnc2c1ncn2[C@@H]1O[C@H](COS(=O)(=O)NC(=O)CCC(=O)c2ccccc2-c2c(O)c(=O)c2=O)[C@@H](O)[C@H]1O` (stereo in doubt) [Compound 106], for which the MIC in [6] is more than 500 µg/mL; in [1] (setting [17]), 250 µg/mL (≈ 415 µM); in data set [2] (setting [18]), more than 500 µg/mL; in data set [3] (setting [19]), more than 500 µg/mL. The “cellular activity against any bacteria tested” value in [4] is “did not show cellular activity”. The compound further yielded a pKa in data set [8] of 1.3.
As for `Nc1ncnc2c1ncn2[C@@H]1O[C@H](COS(=O)(=O)NC(=O)CC[C@@]2(O)c3ccccc3[C@H](O)C2(F)F)[C@@H](O)[C@H]1O` [(1R,3S)-2, 5′-O—(N-[3″-((1R,3S)-2′″,2′″-difluoro-1′″,3′″-dihydroxy-1′″-indanyl)propanoyl]sulfamoyl)adenosine], the MIC in data set [1] (setting [11]) stood at 31.2 µg/mL (≈ 53.2 µM); in [1] (setting [12]), 15.6 µg/mL (≈ 26.6 µM); in data set [2] (setting [13]) it was 31.2 µg/mL (≈ 53.2 µM); in [2] (setting [14]), 15.6 µg/mL (≈ 26.6 µM); in data set [3] (setting [15]), 62.5 µg/mL (≈ 107 µM); in data set [3] (setting [16]), 15.6 µg/mL (≈ 26.6 µM). Further, in [4], the “increase in MIC values when complemented with exogenous menaquinone-4” value is recorded as 2- to 4 fold. Also, the IC50 in data set [9] was 5000 nM.
`Nc1ncnc2c1ncn2[C@@H]1O[C@H](COS(=O)(=O)NC(=O)CC[C@]2(O)c3ccccc3[C@@H](O)C2(F)F)[C@@H](O)[C@H]1O` [(1S,3R)-2, 5′-O—(N-[3″-((1S,3R)-2′″,2′″-difluoro-1′″,3′″-dihydroxy-1′″-indanyl)propanoyl]-sulfamoyl)adenosine]: the MIC was found to be 31.2 µg/mL (≈ 53.2 µM) in data set [1] (setting [11]); 15.6 µg/mL (≈ 26.6 µM) in [1] (setting [12]); 31.2 µg/mL (≈ 53.2 µM) in [2] (setting [13]); 31.2 µg/mL (≈ 53.2 µM) in [2] (setting [14]); 62.5 µg/mL (≈ 107 µM) in data set [3] (setting [15]); 31.2 µg/mL (≈ 53.2 µM) in [3] (setting [16]). Also, in data set [4] (cultures complemented with exogenous menaquinone-4), the “rescue by exogenous menaquinone-4” value was “Some rescue”.
In the case of `Nc1ncnc2c1ncn2[C@@H]1O[C@H](COS(=O)(=O)NC(=O)CCC(=O)c2ccccc2C(=O)O)[C@@H](O)[C@H]1O` [OSB-AMS, o-succinylbenzoate-adenenosinemonosulfamate, reference compound], the MIC in data set [6] is more than 500 µg/mL; in data set [1] (setting [17]), 62.5 µg/mL (≈ 114 µM); in data set [2] (setting [18]), 31.2 µg/mL (≈ 56.8 µM); in data set [3] (setting [19]) it was 125 µg/mL (≈ 227 µM). In [5], the “decrease in menaquinone-8” value turned out to be 2.5 fold. Also, in [5] (OSB-AMS 15.6 μg/mL, overnight, 37° C.), the “decrease in the levels of the menaquinones” value is reported as 3-5 fold. In addition, in data set [8], the pKa amounted to 4. The compound also showed a Kd in [10] of 44 ± 11 nM. The compound further registered a ΔG in data set [10] (ITC, 25° C., pH 7.4) of -10.0 kcal/mol. In data set [10] (ITC, 25° C., pH 7.4), the ΔH is -2.0 ± 0.1 kcal/mol.
